# Source: patent US8648116B2, “Derivatives of N-(arylamino) sulfonamides including polymorphs as inhibitors of MEK as well as compositions, methods of use and methods for preparing the same” (Ardea Biosciences, Inc., priority 2005, dated 2014)
# “And” between values parts separate entries of the source, which are not always exact repeats. Identical values can stand only once. Like-named read-outs stand apart in the source and are kept apart here.
# Assays:
# [1] = tested on: human renal proximal tubule epithelial cells (RPTEC); experiment: Renal cell toxicity (AK release, ATP, 48 hr); assay type: cell-based; conditions: 48 hr
# Experimental: Cryopreserved human renal proximal tubule epithelial cells (RPTEC) were obtained from Cambrex and were processed according to manufacturer's instructions. Cells were expanded for 4 days and then plated in 96-well plates at 50,000 cells/well for drug exposure.
# (§1) After 48 hr, supernatant AK levels were determined using Toxilight, and cellular ATP levels were determined using CellTiterGlo. Full kill values were determined using 15 μM VRX-14686.
# A431 epidermoid cells = experiment: Anchorage-dependent growth inhibition (CellTiterGlo/ATP, 48 hr); conditions: Homo sapiens, A-431, 48 h, read-out: Anchorage-Dependent GI50 (nM ± sd)
# Experimental: (§2) Cells were maintained at 37° C., 5% CO2, and 100% humidity. Colo205 cells were maintained in RPMI supplemented with 10% fetal bovine serum, glutamine (2 mM), penicillin (100 U/ml), and streptomycin (100 μg/ml). For growth inhibition experiments, cells were plated in white 384-well microplates at 1000 cells/20 dwell. After 24 hr, 5 μl of a 5× drug stock solution was added. All drugs were initially prepared as 200× stocks in DMSO, such that final DMSO concentration was 0.5%. Cells were incubated for 48 hr at 37° C. and ATP levels were determined using CellTiterGlo (Promega, Madison, Wis.). […] Non-linear curve-fitting was performed using GraphPad Prism 4 (GraphPad Software, San Diego, Calif.).
# [2] = Plasma concentrations in mice (Example 94F); assay type: in vivo, nu/nu mice; conditions: A375-bearing nu/nu mice; for AUC / Cmax: female, nu/nu, mouse, plasma, po
# [3] = tested on: human A375 melanoma xenografts
# [4] = tested on: Colo205 colon cancer cells; experiment: Anchorage-dependent growth inhibition (CellTiterGlo/ATP, 48 hr); conditions: Homo sapiens, COLO 205, 48 h, read-out: Anchorage-Dependent GI50 (nM ± sd)
# Experimental: as §2
# rat hepatocytes = experiment: Primary hepatocyte toxicity (AK release, ATP, 48 hr); assay type: cell-based; conditions: 48 hr
# Experimental: Cryopreserved rat hepatocytes were obtained from CellzDirect (Austin, Tex.) and plated on collagen coated 96-well plates according to manufacturer's instructions. Drug was added 4 hr after plating (final DMSO concentration 0.5%).
# as §1
# A375 cells = experiment: Anchorage-independent growth inhibition (MTS, 7 days); assay type: cell-based, human; conditions: Homo sapiens, A-375, 168 h, A375 Melanoma, BRAF V600E, 0.15% agarose, read-out: Anchorage-Independent GI50 (nM ± sd)
# A375 melanoma cells = experiment: Anchorage-dependent growth inhibition (CellTiterGlo/ATP, 48 hr); assay type: cell-based, human; conditions: Homo sapiens, A-375; A375 Melanoma, BRAF V600E; 48 hr, CellTiterGlo; read-out: Anchorage-Dependent GI50 (nM ± sd)
# [5] = tested on: orthotopic HT-29 human colorectal adenocarcinoma; experiment: Growth response of orthotopic HT-29 colon tumors in nude mice; assay type: in vivo, BALB/c nu/nu mice; conditions: for Caecum Weight / Tumour Weight: individual animals; for Average Caecum Weight / Average Tumour Weight: mice surviving to final day
# Experimental: Female BALB/c nu/nu mice (University of Adelaide, Waite Campus, SA, Australia), aged 7-12 weeks, with a body weight range: of 16.58-25.39 g (mean 21.52 g) were used for the study. The mice were divided into 6 Study groups (4 treatment groups and 2 control groups) as follows: • Number of Mice per Group: 10 in Groups 1 to 5 inclusive • 9 in ‘Take-Rate’ Control Group (Group 6)
# HT-29 human colorectal adenocarcinoma cells (Passage 4 from working stock VP-Stock 325) were cultured in RPMI1640 cell culture medium, which was supplemented with 10% FBS and penicillin-streptomycin (501 U/mL final concentration). The cells were harvested by trypsinisation, washed twice in HBSS and counted. The cells were then resuspended in HESS and adjusted to a final volume containing 2×10^8 cells/mL. Prior to inoculation, the incision site was liberally swabbed with alcohol and an incision made through the abdominal wall to expose the caecum wall. The needle was introduced through the surface of the caecum wall where 5 μL of cells (1×10^6 cells) were discharged.
# A stock solution was prepared weekly and stored at 4° C. Dosing solutions were prepared on each day of administration.
# Caecum and tumor wet weight were measured when each were excised post-mortem on the termination day of the study. At the termination of the study, the caecum was excised from all mice in each study group and weighed with the tumors intact. The tumors were then excised from the caecum and weighed.
# A two-sample t-test was used to determine the significance in body weight change within a treatment group between Day 0 and the termination day of the study. […] In these groups, a two-sample t-test was used to determine the significance in body weight change within a treatment group between Day 0 and the final treatment day of the study, and between the last treatment day and the termination day of the study.
# A One-Way Analysis of Variance (ANOVA) (All Pairwise Multiple Comparison Procedure and Multiple Comparison versus Control Group) was performed on the caecum weight and tumor weight data at the end of the study.
# Colo205 cells = experiment: Anchorage-independent growth inhibition (MTS, 7 days); assay type: cell-based, human; conditions: Homo sapiens, COLO 205, 168 h, Colo205 Colon, BRAF V600E, 0.15% agarose, read-out: Anchorage-Independent GI50 (nM ± sd)
# Experimental: Wells of an “ultra low binding” plate (Corning, Acton Mass.) were filled with 60 μl of a 0.15% agarose solution in complete RPMI. Then, 60 μl complete RPMI containing 9000 Colo205 cells in 0.15% agarose was added per well. After 24 hr, 60 μl of a 3× drug solution in agarose free complete RPMI was added. After 7 days, 36 μl 6×MTS reagent (CellTiter 96 Aqueous, Promega, Madison, Wis.) was added per well. After 2 hr at 37° C., absorbance at 490 nm was determined on the M5 plate reader (Molecular Devices, Sunnyvale, Calif.).
# Viability was determined by MTS assay.
# HT29 colon cells = experiment: Anchorage-dependent growth inhibition (CellTiterGlo/ATP, 48 hr); conditions: Homo sapiens, HT-29, 48 h, read-out: Anchorage-Dependent GI50 (nM ± sd)
# Experimental: as §2
# [6] = oral, column 1, no head (b1249 order: 50 mg/kg QD)
# [7] = oral, column 2, no head (b1249 order: 25 mg/kg BID)
# [8] = oral, column 3, no head (b1249 order: second 50 mg/kg QD)
# [9] = oral, column 4, no head (b1249 order: 12.5 mg/kg BID)
# [10] = 50 mg/kg, oral, column 1, no head (b1249 order: 50 mg/kg QD)
# [11] = 50 mg/kg, oral, column 3, no head (b1249 order: second 50 mg/kg QD)
# [12] = Group 3: Compound A 50 mg/kg po qd × 14
# [13] = Group 3: Compound A 50 mg/kg po qd × 14, n=9
# [14] = Group 4: Compound A 25 mg/kg po bid × 14
# [15] = Group 4: Compound A 25 mg/kg po bid × 14, n=9
# [16] = Group 5: Compound A 25 mg/kg po qd × 14
# [17] = Group 5: Compound A 25 mg/kg po qd × 14, n=9
# [18] = Group 6: Compound A 12.5 mg/kg po bid × 14
# [19] = Group 6: Compound A 12.5 mg/kg po bid × 14, n=9
smiles,measurement,setting,value
COc1cc(F)c(F)c(Nc2ccc(I)cc2F)c1NS(=O)(=O)C1(C[C@H](O)CO)CC1 [Compound A],AK release (% Cell Survival) RPTEC Human,[1]; Compound A 1.1 (μM),96%
same,ATP (% Cell Survival) RPTEC Human,[1]; Compound A 1.1 (μM),94%
same,AK release (% Cell Survival) RPTEC Human,[1]; Compound A 3.3 (μM),95%
same,ATP (% Cell Survival) RPTEC Human,[1]; Compound A 3.3 (μM),91%
same,AK release (% Cell Survival) RPTEC Human,[1]; Compound A 10.0 (μM),99%
same,ATP (% Cell Survival) RPTEC Human,[1]; Compound A 10.0 (μM),85%
same,AK release (% Cell Survival) RPTEC Human,[1]; Compound A 30.0 (μM),41%
same,ATP (% Cell Survival) RPTEC Human,[1]; Compound A 30.0 (μM),34%
same,GI50,A431 epidermoid cells,> 10000 nM
same,Cmin,[2]; [6],60 ng/mL
same,Cmin Free Fraction,[2]; [6],0.117 ng/mL
same,Cmin,[2]; [7],1240 ng/mL
same,Cmin Free Fraction,[2]; [7],2.48 ng/mL
same,Cmin,[2]; [8],30 ng/mL
same,Cmin Free Fraction,[2]; [8],0.059 ng/mL
same,Cmin,[2]; [9],490 ng/mL
same,Cmin Free Fraction,[2]; [9],0.986 ng/mL
same,AUC,[2]; 12.5 mg/kg,78 µg·h/mL
same,Cmax,[2]; 12.5 mg/kg,7800 ng/mL
same,AUC,[2]; 25 mg/kg,117 µg·h/mL
same,Cmax,[2]; 25 mg/kg,10200 ng/mL
same,AUC,[2]; [10],132 µg·h/mL
same,Cmax,[2]; [10],23800 ng/mL
same,AUC,[2]; [11],66.5 µg·h/mL
same,Cmax,[2]; [11],11900 ng/mL
same,% TGD,[3]; [12],21%
same,Median TTE,[3]; [12],27.5 days
same,T − C,[3]; [12],4.7 days
same,Regressions CR,[3]; [13],0
same,Regressions PR,[3]; [13],1
same,Regressions TFS,[3]; [13],0
same,% TGD,[3]; [14],163%
same,MTV (n) Day 60,[3]; [14],0 (4)
same,Median TTE,[3]; [14],59.9 days
same,T − C,[3]; [14],37.1 days
same,Regressions CR,[3]; [15],5
same,Regressions PR,[3]; [15],4
same,Regressions TFS,[3]; [15],4
same,% TGD,[3]; [16],12%
same,Median TTE,[3]; [16],25.6 days
same,T − C,[3]; [16],2.8 days
same,Regressions CR,[3]; [17],0
same,Regressions PR,[3]; [17],0
same,Regressions TFS,[3]; [17],0
same,% TGD,[3]; [18],21%
same,Median TTE,[3]; [18],27.5 days
same,T − C,[3]; [18],4.7 days
same,Regressions CR,[3]; [19],0
same,Regressions PR,[3]; [19],1
same,Regressions TFS,[3]; [19],0
same,Mean BW Nadir,"[3]; mouse, in vivo, po, 25 mg/kg",−0.6% Day 15
same,GI50,[4],74 ± 45 nM
same,AK release (% Cell Survival) Hepatocytes Rat,rat hepatocytes; Compound A 1.1 (μM),96%
same,ATP (% Cell Survival) Hepatocytes Rat,rat hepatocytes; Compound A 1.1 (μM),114%
same,AK release (% Cell Survival) Hepatocytes Rat,rat hepatocytes; Compound A 3.3 (μM),97%
same,ATP (% Cell Survival) Hepatocytes Rat,rat hepatocytes; Compound A 3.3 (μM),87%
same,AK release (% Cell Survival) Hepatocytes Rat,rat hepatocytes; Compound A 10.0 (μM),93%
same,ATP (% Cell Survival) Hepatocytes Rat,rat hepatocytes; Compound A 10.0 (μM),72%
same,AK release (% Cell Survival) Hepatocytes Rat,rat hepatocytes; Compound A 30.0 (μM),91%
same,ATP (% Cell Survival) Hepatocytes Rat,rat hepatocytes; Compound A 30.0 (μM),57%
same,GI50,A375 cells,68 ± 34 nM
same,GI50,A375 melanoma cells,67 ± 12 nM
same,Survival Number (No. Alive/Total),[5]; Compound A 2 mg/kg p.o. once daily Day 0 to 9,4/10
same,Caecum Weight,"[5]; Compound A 2 mg/kg, 2 mg/kg",0.347 g and 0.170 g and 0.150 g and 0.205 g and 0.377 g and 0.233 g and 0.251 g and 0.322 g
same,Tumour Weight,"[5]; Compound A 2 mg/kg, 2 mg/kg",0.001 g (3×) and 0.000 g and 0.005 g (2×) and 0.122 g and 0.003 g
same,Average Caecum Weight,[5]; Compound A 2 mg/kg,0.296 g
same,Average Tumour Weight,[5]; Compound A 2 mg/kg,0.033 g
same,Caecum Weight,"[5]; Compound A 10 mg/kg, 10 mg/kg",0.287 g and 0.198 g and 0.258 g and 0.111 g and 0.263 g and 0.237 g and 0.234 g and 0.289 g and 0.320 g and 0.251 g
same,Tumour Weight,"[5]; Compound A 10 mg/kg, 10 mg/kg",0.000 g (3×) and 0.257 g and 0.008 g and 0.422 g and 0.001 g and 0.014 g and 0.004 g and 0.100 g
same,Average Caecum Weight,[5]; Compound A 10 mg/kg,0.244 g
same,Average Tumour Weight,[5]; Compound A 10 mg/kg,0.078 g
same,Caecum Weight,"[5]; Compound A 50 mg/kg, 50 mg/kg",0.230 g and 0.254 g and 0.238 g and 0.201 g and 0.337 g and 0.169 g and 0.328 g and 0.217 g and 0.312 g and 0.463 g
same,Tumour Weight,"[5]; Compound A 50 mg/kg, 50 mg/kg",0.002 g (2×) and 0.000 g and 0.004 g and 0.166 g and 0.655 g and 0.001 g (3×) and 0.026 g
same,Average Caecum Weight,[5]; Compound A 50 mg/kg,0.290 g
same,Average Tumour Weight,[5]; Compound A 50 mg/kg,0.122 g
same,GI50,Colo205 cells,33 ± 16 nM
same,GI50,HT29 colon cells,70 ± 12 nM
